Converted amounts (≈) assume the structure as drawn. Where two headings read alike, the source gives them in different places.
Columns and labels:
Assay in all cases: MIC, microdilution broth method (NCCLS)
Format in all cases: cell-based
E. coli OC2605 = settings: Escherichia coli
Procedure, shortened: (§1)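 NCCLS M7-A4 broth microdilution: two-fold drug dilutions in cation-adjusted Mueller-Hinton broth, inoculum approximately 5×10^4 CFU/well. Trays incubated at 35 °C for 16-20 hours. MIC read by comparing growth to compound-free growth controls.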

H. influenzae ATCC49247 = settings: Haemophilus influenzae, read-out: MIC Values, E: H. influenzae ATCC49247
Procedure, shortened: as §1

S. aureus ATCC29213 = settings: Staphylococcus aureus, read-out: MIC Values, B: S. aureus ATCC29213
Procedure, shortened: as §1

S. pneumoniae ATCC49619 = settings: Streptococcus pneumoniae, read-out: MIC Values, D: S. pneumoniae ATCC49619
Procedure, shortened: as §1

E. faecalis ATCC29212 = settings: Enterococcus faecalis, read-out: MIC Values, C: E. faecalis ATCC29212
Procedure, shortened: as §1

[1] = Table 2, 3,6-Dicarbamoyl Macrolide Derivatives, read-out: MIC Values, A: E. coil OC2605
[2] = Table 2, 3,6-Dicarbamoyl Macrolide Derivatives
[3] = Table 1, 6-Carbamoyl-3-Acyl Macrolide Derivatives, read-out: MIC Values, A: E. coli OC2605
[4] = Table 1, 6-Carbamoyl-3-Acyl Macrolide Derivatives

| Structure (SMILES) | MIC (E. coli OC2605; [1]) [µg/mL] | MIC (H. influenzae ATCC49247; [2]) [µg/mL] | MIC (S. aureus ATCC29213; [2]) [µg/mL] | MIC (S. pneumoniae ATCC49619; [2]) [µg/mL] | MIC (E. faecalis ATCC29212; [2]) [µg/mL] | MIC (E. coli OC2605; [3]) [µg/mL] | MIC (H. influenzae ATCC49247; [4]) [µg/mL] | MIC (S. aureus ATCC29213; [4]) [µg/mL] | MIC (S. pneumoniae ATCC49619; [4]) [µg/mL] | MIC (E. faecalis ATCC29212; [4]) [µg/mL] |
| --- | --- | --- | --- | --- | --- | --- | --- | --- | --- | --- |
| CC[C@H]1OC(=O)[C@H](C)[C@@H](OC(=O)Nc2ccc(OC)nc2)[C@H](C)[C@@H](O[C@@H]2O[C@H](C)C[C@H](N(C)C)[C@H]2O)[C@](C)(OC(=O)NC/C=C/c2ccc(-c3ncccn3)cc2)C[C@@H](C)C(=O)[C@H](C)[C@H]2NC(=O)O[C@@]21C [Compound 50] | > 16 | 4 (≈ 4.05 µM) | 1 (≈ 1.01 µM) | 0.12 (≈ 0.121 µM) | 0.5 (≈ 0.506 µM) | – | – | – | – | – |
| CC[C@H]1OC(=O)[C@H](C)[C@@H](OC(=O)N2CCCC2)[C@H](C)[C@@H](O[C@@H]2O[C@H](C)C[C@H](N(C)C)[C@H]2O)[C@](C)(OC(=O)NC/C=C/c2ccc(-c3ncccn3)cc2)C[C@@H](C)C(=O)[C@H](C)[C@H]2NC(=O)O[C@@]21C [Compound 62] | > 16 | 4 (≈ 4.28 µM) | 0.5 (≈ 0.535 µM) | 0.06 (≈ 0.0642 µM) | 0.5 (≈ 0.535 µM) | – | – | – | – | – |
| CC[C@H]1OC(=O)[C@H](C)[C@@H](OC(=O)N(CC)CC)[C@H](C)[C@@H](O[C@@H]2O[C@H](C)C[C@H](N(C)C)[C@H]2O)[C@](C)(OC(=O)NC/C=C/c2ccc(-c3ncccn3)cc2)C[C@@H](C)C(=O)[C@H](C)[C@H]2NC(=O)O[C@@]21C [Compound 56] | 16 (≈ 17.1 µM) | 4 (≈ 4.27 µM) | 0.5 (≈ 0.534 µM) | 0.06 (≈ 0.064 µM) | 0.5 (≈ 0.534 µM) | – | – | – | – | – |
| CC[C@H]1OC(=O)[C@H](C)[C@@H](OC(=O)N(CC)CCO)[C@H](C)[C@@H](O[C@@H]2O[C@H](C)C[C@H](N(C)C)[C@H]2O)[C@](C)(OC(=O)NC/C=C/c2ccc(-c3ncccn3)cc2)C[C@@H](C)C(=O)[C@H](C)[C@H]2NC(=O)O[C@@]21C [Compound 66] | > 16 | 16 (≈ 16.8 µM) | 4 (≈ 4.2 µM) | 0.25 (≈ 0.262 µM) | 2 (≈ 2.1 µM) | – | – | – | – | – |
| CC[C@H]1OC(=O)[C@H](C)[C@@H](OC(=O)N(C)c2cccnc2)[C@H](C)[C@@H](O[C@@H]2O[C@H](C)C[C@H](N(C)C)[C@H]2O)[C@](C)(OC(=O)NC/C=C/c2ccc(-c3ncccn3)cc2)C[C@@H](C)C(=O)[C@H](C)[C@H]2NC(=O)O[C@@]21C [Compound 60] | > 16 | 4 (≈ 4.11 µM) | 1 (≈ 1.03 µM) | 0.06 (≈ 0.0617 µM) | 0.5 (≈ 0.514 µM) | – | – | – | – | – |
| CC[C@H]1OC(=O)[C@H](C)[C@@H](OC(=O)Cc2cccnc2)[C@H](C)[C@@H](O[C@@H]2O[C@H](C)C[C@H](N(C)C)[C@H]2O)[C@](C)(OC(=O)NC/C=C/c2cnc(C(F)(F)F)nc2)C[C@@H](C)C(=O)[C@H](C)[C@H]2NC(=O)O[C@@]21C [Compound 38] | – | – | – | – | – | > 16 | 4 (≈ 4.21 µM) | 2 (≈ 2.11 µM) | 0.12 (≈ 0.126 µM) | 0.5 (≈ 0.527 µM) |
| CC[C@H]1OC(=O)[C@H](C)[C@@H](OC(=O)c2ccccc2)[C@H](C)[C@@H](O[C@@H]2O[C@H](C)C[C@H](N(C)C)[C@H]2O)[C@](C)(OC(=O)NC/C=C/c2cccnc2)C[C@@H](C)C(=O)[C@H](C)[C@H]2NC(=O)O[C@@]21C [Compound 18] | – | – | – | – | – | > 16 | 8 (≈ 9.25 µM) | 4 (≈ 4.62 µM) | 0.12 (≈ 0.139 µM) | 0.5 (≈ 0.578 µM) |
| CC[C@H]1OC(=O)[C@H](C)[C@@H](OC(=O)c2cnccn2)[C@H](C)[C@@H](O[C@@H]2O[C@H](C)C[C@H](N(C)C)[C@H]2O)[C@](C)(OC(=O)NC/C=C/c2ccc(-c3ncccn3)cc2)C[C@@H](C)C(=O)[C@H](C)[C@H]2NC(=O)O[C@@]21C [Compound 5] | – | – | – | – | – | > 16 | 8 (≈ 8.47 µM) | 0.5 (≈ 0.53 µM) | 0.06 (≈ 0.0636 µM) | 0.5 (≈ 0.53 µM) |
| CC[C@H]1OC(=O)[C@H](C)[C@@H](OC(=O)/C=C/c2cccnc2)[C@H](C)[C@@H](O[C@@H]2O[C@H](C)C[C@H](N(C)C)[C@H]2O)[C@](C)(OC(=O)NC/C=C/c2ccc(-c3ncccn3)cc2)C[C@@H](C)C(=O)[C@H](C)[C@H]2NC(=O)O[C@@]21C [Compound 6] | – | – | – | – | – | > 16 | > 16 | 2 (≈ 2.06 µM) | 0.12 (≈ 0.124 µM) | 1 (≈ 1.03 µM) |
| CC[C@H]1OC(=O)[C@H](C)[C@@H](OC(=O)c2cccnc2)[C@H](C)[C@@H](O[C@@H]2O[C@H](C)C[C@H](N(C)C)[C@H]2O)[C@](C)(OC(=O)NC/C=C/c2ccc(-c3ncccn3)cc2)C[C@@H](C)C(=O)[C@H](C)[C@H]2NC(=O)O[C@@]21C [Compound 7] | – | – | – | – | – | > 16 | 8 (≈ 8.48 µM) | 1 (≈ 1.06 µM) | 0.06 (≈ 0.0636 µM) | 0.5 (≈ 0.53 µM) |

The next lines start with the values.

| MIC (E. coli OC2605; [1]) [µg/mL] | MIC (H. influenzae ATCC49247; [2]) [µg/mL] | MIC (S. aureus ATCC29213; [2]) [µg/mL] | MIC (S. pneumoniae ATCC49619; [2]) [µg/mL] | MIC (E. faecalis ATCC29212; [2]) [µg/mL] | MIC (E. coli OC2605; [3]) [µg/mL] | MIC (H. influenzae ATCC49247; [4]) [µg/mL] | MIC (S. aureus ATCC29213; [4]) [µg/mL] | MIC (S. pneumoniae ATCC49619; [4]) [µg/mL] | MIC (E. faecalis ATCC29212; [4]) [µg/mL] | Structure (SMILES) |
| --- | --- | --- | --- | --- | --- | --- | --- | --- | --- | --- |
| – | – | – | – | – | 8 (≈ 8.6 µM) | 2 (≈ 2.15 µM) | 0.5 (≈ 0.538 µM) | 0.03 (≈ 0.0323 µM) | 0.25 (≈ 0.269 µM) | CC[C@H]1OC(=O)[C@H](C)[C@@H](OC(=O)Cc2ccccn2)[C@H](C)[C@@H](O[C@@H]2O[C@H](C)C[C@H](N(C)C)[C@H]2O)[C@](C)(OC(=O)NC/C=C/c2cnc3ccccc3c2)C[C@@H](C)C(=O)[C@H](C)[C@H]2NC(=O)O[C@@]21C [Compound 32] |
| – | – | – | – | – | > 16 | 8 (≈ 7.93 µM) | 2 (≈ 1.98 µM) | 0.25 (≈ 0.248 µM) | 2 (≈ 1.98 µM) | CC[C@H]1OC(=O)[C@H](C)[C@@H](OC(=O)Cc2cn(C)c3ccccc23)[C@H](C)[C@@H](O[C@@H]2O[C@H](C)C[C@H](N(C)C)[C@H]2O)[C@](C)(OC(=O)NC/C=C/c2ccc(-c3ncccn3)cc2)C[C@@H](C)C(=O)[C@H](C)[C@H]2NC(=O)O[C@@]21C [Compound 11] |
| – | – | – | – | – | 8 (≈ 8.6 µM) | 2 (≈ 2.15 µM) | 0.5 (≈ 0.538 µM) | 0.03 (≈ 0.0323 µM) | 0.25 (≈ 0.269 µM) | CC[C@H]1OC(=O)[C@H](C)[C@@H](OC(=O)Cc2cccnc2)[C@H](C)[C@@H](O[C@@H]2O[C@H](C)C[C@H](N(C)C)[C@H]2O)[C@](C)(OC(=O)NC/C=C/c2ccnc3ccccc23)C[C@@H](C)C(=O)[C@H](C)[C@H]2NC(=O)O[C@@]21C [Compound 34] |
| – | – | – | – | – | > 16 | 8 (≈ 8.1 µM) | 2 (≈ 2.03 µM) | 0.12 (≈ 0.122 µM) | 1 (≈ 1.01 µM) | CC[C@H]1OC(=O)[C@H](C)[C@@H](OC(=O)c2ccc([N+](=O)[O-])cc2)[C@H](C)[C@@H](O[C@@H]2O[C@H](C)C[C@H](N(C)C)[C@H]2O)[C@](C)(OC(=O)NC/C=C/c2ccc(-c3ncccn3)cc2)C[C@@H](C)C(=O)[C@H](C)[C@H]2NC(=O)O[C@@]21C [Compound 10] |
| – | – | – | – | – | 8 (≈ 8.83 µM) | 1 (≈ 1.1 µM) | 0.5 (≈ 0.552 µM) | 0.03 (≈ 0.0331 µM) | 0.25 (≈ 0.276 µM) | CC[C@H]1OC(=O)[C@H](C)[C@@H](OC(=O)Cc2cccnc2)[C@H](C)[C@@H](O[C@@H]2O[C@H](C)C[C@H](N(C)C)[C@H]2O)[C@](C)(OC(=O)NC/C=C/C=C/c2ccccn2)C[C@@H](C)C(=O)[C@H](C)[C@H]2NC(=O)O[C@@]21C [Compound 27] |
| – | – | – | – | – | 8 (≈ 9.1 µM) | 2 (≈ 2.28 µM) | 0.5 (≈ 0.569 µM) | 0.06 (≈ 0.0683 µM) | 0.25 (≈ 0.284 µM) | CC[C@H]1OC(=O)[C@H](C)[C@@H](OC(=O)Cc2cccnc2)[C@H](C)[C@@H](O[C@@H]2O[C@H](C)C[C@H](N(C)C)[C@H]2O)[C@](C)(OC(=O)NC/C=C/c2ccccc2)C[C@@H](C)C(=O)[C@H](C)[C@H]2NC(=O)O[C@@]21C [Compound 21] |
| – | – | – | – | – | > 16 | 2 (≈ 2.27 µM) | 1 (≈ 1.14 µM) | 0.12 (≈ 0.136 µM) | 0.5 (≈ 0.568 µM) | CC[C@H]1OC(=O)[C@H](C)[C@@H](OC(=O)Cc2cccnc2)[C@H](C)[C@@H](O[C@@H]2O[C@H](C)C[C@H](N(C)C)[C@H]2O)[C@](C)(OC(=O)NC/C=C/c2cncnc2)C[C@@H](C)C(=O)[C@H](C)[C@H]2NC(=O)O[C@@]21C [Compound 40] |
| – | – | – | – | – | > 16 | 8 (≈ 9.09 µM) | 1 (≈ 1.14 µM) | 0.06 (≈ 0.0682 µM) | 0.25 (≈ 0.284 µM) | CC[C@H]1OC(=O)[C@H](C)[C@@H](OC(C)=O)[C@H](C)[C@@H](O[C@@H]2O[C@H](C)C[C@H](N(C)C)[C@H]2O)[C@](C)(OC(=O)NC/C=C/c2ccc(-c3ncccn3)cc2)C[C@@H](C)C(=O)[C@H](C)[C@H]2NC(=O)O[C@@]21C [Compound 12] |
| – | – | – | – | – | 16 (≈ 17.2 µM) | 4 (≈ 4.3 µM) | 1 (≈ 1.08 µM) | 0.03 (≈ 0.0323 µM) | 0.5 (≈ 0.538 µM) | CC[C@H]1OC(=O)[C@H](C)[C@@H](OC(=O)Cc2cccnc2)[C@H](C)[C@@H](O[C@@H]2O[C@H](C)C[C@H](N(C)C)[C@H]2O)[C@](C)(OC(=O)NC/C=C/c2cnc3ccccc3c2)C[C@@H](C)C(=O)[C@H](C)[C@H]2NC(=O)O[C@@]21C [Compound 30] |
| – | – | – | – | – | 16 (≈ 16.9 µM) | 2 (≈ 2.11 µM) | 0.5 (≈ 0.528 µM) | 0.03 (≈ 0.0317 µM) | 0.25 (≈ 0.264 µM) | CC[C@H]1OC(=O)[C@H](C)[C@@H](OC(=O)Cc2cccnc2)[C@H](C)[C@@H](O[C@@H]2O[C@H](C)C[C@H](N(C)C)[C@H]2OC(C)=O)[C@](C)(OC(=O)NCc2cnc3ccccc3c2)C[C@@H](C)C(=O)[C@H](C)[C@H]2NC(=O)O[C@@]21C [Compound 22] |

Reference: patent publication US6825172B2, “3-descladinosyl-6-O-carbamoyl and 6-O-carbonoyl macrolide antibacterial agents” (Janssen Pharmaceutica, NV, priority 2002, dated 2004)
